Tests used:
[1] = system: Eotaxin-3 (CCL26) release; test: Human Whole Blood Eotaxin-3 Assay (IL-4 stimulated); type: cell-based; settings: geometric mean across assay runs and compound batches, EC50 provided for test compounds with >80% Emax
Procedure: This was a human whole blood assay using recombinant human Interleukin 4 to stimulate the blood and measuring the ability of the test compounds to inhibit eotaxin-3 release. The biological activities of the test compounds have been tested in human whole blood stimulated with IL-4 measuring Eotaxin-3 release. The test compounds were added to 384 well clear flat-bottom plate in a 4-fold serial dilution in triplicates using a liquid handler. Human whole blood stabilized in lithium-heparin tubes was added in a volume of 65 μL per well, resulting in a final DMSO concentration of 0.5%. The plate is incubated for 2 h at 37° C. under 5% CO2/95% air. Subsequently, 5 μL of recombinant human IL-4 (R&D Systems, cat #204-ILB) was added to the wells to a final concentration of 400 pM. The plate was incubated for 48 h at 37° C. under 5% CO2/95% air. The plate was spun down for 10 minutes at 500×g and 20 μL supernatant was harvested and transferred to a 384 well v-bottom plate using a liquid handler and stored at −20° C. until further analysis. 10 μL supernatant was used to measure the level of Eotaxin-3 (CCL26) using Human Eotaxin-3 MSD kit from Mesocsale (Cat #K251UEK-4). The assay was performed according to the manufacture instructions.

STAT6 = molecular target: T1, STAT6 (Homo sapiens, UniProt P42226); test: STAT6 Degrader Assay (HiBiT based, HeLa LgBiT clone 4.14 cells); type: cell-based; settings: geometric mean across assay runs and compound batches; DC50 provided for test compounds with >80% Emax; read-out: STAT6 degradation DC50
T1 construct: These cells express endogenous STAT6; host or cells: HeLa LgBiT clone 4.14 (CRISPR knock-in of HiBiT into the endogenous STAT6 gene)
T1 sequence (P42226 1-847): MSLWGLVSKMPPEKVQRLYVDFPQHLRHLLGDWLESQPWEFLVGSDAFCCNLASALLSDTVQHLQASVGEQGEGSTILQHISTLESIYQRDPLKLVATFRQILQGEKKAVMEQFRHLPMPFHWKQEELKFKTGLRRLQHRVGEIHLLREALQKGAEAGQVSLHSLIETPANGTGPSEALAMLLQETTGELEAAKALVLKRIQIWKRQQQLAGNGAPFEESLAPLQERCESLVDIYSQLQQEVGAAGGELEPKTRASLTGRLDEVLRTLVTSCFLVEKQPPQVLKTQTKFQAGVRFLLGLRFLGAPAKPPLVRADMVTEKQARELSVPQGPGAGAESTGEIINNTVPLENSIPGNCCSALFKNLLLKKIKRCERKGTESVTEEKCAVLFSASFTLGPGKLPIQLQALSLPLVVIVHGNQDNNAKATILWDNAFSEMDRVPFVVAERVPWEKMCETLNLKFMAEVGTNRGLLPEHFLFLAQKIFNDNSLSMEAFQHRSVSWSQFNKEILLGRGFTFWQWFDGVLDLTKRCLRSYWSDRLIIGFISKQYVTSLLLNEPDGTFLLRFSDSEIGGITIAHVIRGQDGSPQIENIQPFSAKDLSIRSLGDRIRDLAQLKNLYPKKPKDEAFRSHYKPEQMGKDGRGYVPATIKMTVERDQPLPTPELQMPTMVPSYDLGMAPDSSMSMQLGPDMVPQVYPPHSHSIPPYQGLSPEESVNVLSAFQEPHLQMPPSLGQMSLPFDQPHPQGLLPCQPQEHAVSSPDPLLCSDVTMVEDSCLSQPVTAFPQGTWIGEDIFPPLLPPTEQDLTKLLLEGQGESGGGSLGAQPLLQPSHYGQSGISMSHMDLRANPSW
Summary of the method: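 DC50 (nM) comes from NanoBiT luminescence of HiBiT-knock-in STAT6 in HeLa LgBiT clone 4.14 cells, treated 4-24 h at 37° C. Luminescence reflects non-degraded STAT6, with 50 μM terfenadine wells taken as full degradation.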

| EC50 ([1]; Homo sapiens) [nM] | DC50 (STAT6) [nM] | EC50 [1] [nM] | Structure (SMILES) |
| --- | --- | --- | --- |
| 3.5 | 2.2 | – | Cc1cc(C(=O)N2CCn3nc(CN4CCC(c5ccc(NC6CCC(=O)NC6=O)cc5F)CC4)cc3C2)cc(F)c1C1=CCN([C@@H](C)c2cc3c(-n4cc(F)c5c(c4=O)CCN5)ccnc3n2C)CC1 (stereo partly drawn) [Example 2g14, 3-((3-fluoro-4-(1-((5-(3-fluoro-4-(1-((S)-1-(4-(7-fluoro-4-oxo-1,2,3,4-tetra-hydro-5H-pyrrolo[3,2-c]pyridin-5-yl)-1-methyl-1H-pyrrolo[2,3-b]pyridin-2-yl)-ethyl)-1,2,3,6-tetrahydro-pyridin-4-yl)-5-methylbenzo-yl)-4,5,6,7-tetrahydropyrazolo [1,5-a]pyrazin-2-yl)methyl)-piperidin-4-yl)phenyl)amino)-piperidine-2,6-dione] |
| 408 | 120 | – | CNc1cc(=O)n(-c2ccnc3c2cc(CN2CC=C(c4c(F)cc(C(=O)N5CCC(CN6CCN(c7ccc(NC8CCC(=O)NC8=O)cc7F)CC6)CC5)cc4F)CC2)n3C)cc1F (centres unmarked) [Example 2g65, 3-((4-(4-((1-(3,5-difluoro-4-(1-((4-(5-fluoro-4-(methyl-amino)-2-oxopyridin-1(2H)-yl)-1-methyl-1H-pyrrolo[2,3-b]pyridin-2-yl)methyl)-1,2,3,6-tetrahydropyridin-4-yl)benzoyl)piperidin-4-yl)-methyl)piperazin-1-yl)-3-fluorophenyl)amino)piperi-dine-2,6-dione] |
| 3.6 | 1.8 | – | CNc1cc(=O)n(-c2ccnc3c2cc(CN2CCC(c4c(F)cc(C(=O)N5CCn6nc(CN7CCC(c8ccc(NC9CCC(=O)NC9=O)c(OC)c8)CC7)cc6C5)cc4F)CC2)n3C)cc1F (centres unmarked) [Example 2g122, 3-((4-(1-((5-(3,5-difluoro-4-(1-((4-(5-fluoro-4-(methyl-amino)-2-oxopyridin-1(2H)-yl)-1-methyl-1H-pyrrolo[2,3-b]pyridin-2-yl)methyl)piperi-din-4-yl)benzoyl)-4,5,6,7-tetrahydropyrazolo[1,5-a]pyr-azin-2-yl)methyl)piperidin-4-yl)-2-methoxyphenyl)amino)-piperidine-2,6-dione] |
| 196 | 10.4 | – | CNc1ccn(-c2ccnc3c2cc(CN2CCC(c4c(F)cc(C(=O)N5CCC(CN6CCN(c7ccc(N[C@H]8CCC(=O)NC8=O)cc7F)CC6)CC5)cc4F)CC2)n3C)c(=O)c1 (single isomer, unassigned) [Example 2g58] |
| – | 47.8 | 63.1 | C[C@@H](c1cc2c(-n3ccc4c(c3=O)CCN4)ccnc2n1C)N1CCC(c2ccc(C(=O)N3CCN(CC4CCN(c5ccc(NC6CCC(=O)NC6=O)cc5F)CC4)CC3)cc2)CC1 (stereo partly drawn) [Example 2g53, 3-((3-fluoro-4-(4-((4-(4-(1-((S)-1-(1-methyl-4-(4-oxo-1,2,3,4-tetrahydro-5H-pyrrolo [3,2-c]pyridin-5-yl)-1H-pyrrolo[2,3-b]pyridin-2-yl)-ethyl)piperidin-4-yl)benzoyl)-piperazin-1-yl)methyl)piperi-din-1-yl)phenyl)amino)piperi-dine-2,6-dione] |
| 0.6 | 0.2 | – | CNc1cc(=O)n(-c2ccnc3c2cc([C@H](C)N2CC=C(c4c(C)cc(C(=O)N5CCn6nc(CN7CCC(c8ccc(NC9CCC(=O)NC9=O)c(OC)c8)CC7)cc6C5)cc4F)CC2)n3C)cc1F (stereo partly drawn) [Example 2g90, 3-((4-(1-((5-(3-fluoro-4-(1-((S)-1-(4-(5-fluoro-4-(meth-ylamino)-2-oxopyridin-1(2H)-yl)-1-methyl-1H-pyrrolo[2,3-b]pyridin-2-yl)ethyl)-1,2,3,6-tetrahydropyridin-4-yl)-5-methylbenzoyl)-4,5,6,7-tetra-hydropyrazolo[1,5-a]pyrazin-2-yl)methyl)piperidin-4-yl)-2-methoxyphenyl)amino)-piperidine-2,6-dione] |
| 1.9 | 0.5 | – | CNc1cc(=O)n(-c2ccnc3c2cc([C@H](C)N2CC=C(c4c(C)cc(C(=O)N5CCn6nc(CN7CCC(c8ccc(NC9CCC(=O)NC9=O)cc8F)CC7)cc6C5)cc4F)CC2)n3C)cc1F (stereo partly drawn) [Example 2g4, 3-((3-fluoro-4-(1-((5-(3-fluoro-4-(1-((S)-1-(4-(5-fluoro-4-(methylamino)-2-oxopyridin-1(2H)-yl)-1-meth-yl-1H-pyrrolo[2,3-b]pyridin-2-yl)ethyl)-1,2,3,6-tetrahydro-pyridin-4-yl)-5-methylbenzo-yl)-4,5,6,7-tetrahydropyrazolo [1,5-a]pyrazin-2-yl)methyl)-piperidin-4-yl)phenyl)amino)-piperidine-2,6-dione] |
| 8.7 | – | – | CNc1ccn(-c2ccnc3c2cc([C@H](C)N2CC=C(c4c(F)cc(C(=O)N5CCC(CN6CCN(c7ccc(N[C@@H]8CCC(=O)NC8=O)cc7F)CC6)CC5)cc4F)CC2)n3C)c(=O)c1 (single isomer, unassigned) [Example 2g105] |
| 36.4 | – | – | CNc1ccn(-c2ccnc3c2cc([C@H](C)N2CC=C(c4c(C)cc(C(=O)N5CCC(CN6CCN(c7cccc(C(=O)NC8CCC(=O)NC8=O)c7)CC6)CC5)cc4F)CC2)n3C)c(=O)c1 (stereo partly drawn) [Example 2g21, N-(2,6-dioxopiperidin-3-yl)-3-(4-((1-(3-fluoro-5-methyl-4-(1-((S)-1-(1-methyl-4-(4-(methylamino)-2-oxopyridin-1(2H)-yl)-1H-pyrrolo[2,3-b]pyridin-2-yl)ethyl)-1,2,3,6-tetrahydropyridin-4-yl)benzo-yl)piperidin-4-yl)methyl)-piperazin-1-yl)benzamide] |
| 9.5 | – | – | CNc1ccn(-c2ccnc3c2cc([C@H](C)N2CC=C(c4c(C)cc(C(=O)N5CCC(CN6CCN(c7ncc(N[C@@H]8CCC(=O)NC8=O)cc7F)C[C@H]6C)CC5)cc4F)CC2)n3C)c(=O)c1 (single isomer, unassigned) [Example 2g115] |
| 25.7 | – | – | CNc1cc(=O)n(-c2ccnc3c2cc([C@H](C)N2CC=C(c4c(C)cc(C(=O)N5CCC(CN6CCN(c7ncc(NC8CCC(=O)NC8=O)cc7F)CC6)CC5)cc4F)CC2)n3C)cc1F (stereo partly drawn) [Example 2g64, 3-((5-fluoro-6-(4-((1-(3-fluoro-4-(1-((S)-1-(4-(5-fluoro-4-(methylamino)-2-oxopyridin-1(2H)-yl)-1-meth-yl-1H-pyrrolo[2,3-b]pyridin-2-yl)ethyl)-1,2,3,6-tetrahydro-pyridin-4-yl)-5-methylbenzo-yl)piperidin-4-yl)methyl)-piperazin-1-yl)pyridin-3-yl)-amino)piperidine-2,6-dione] |
| 121 | – | – | CNc1cc(=O)n(-c2ccnc3c2cc([C@H](C)N2CC=C(c4c(C)cc(C(=O)N5CCn6nc(CN7CCC(c8cc(OC)c(NC9CCC(=O)NC9=O)cc8F)CC7)cc6C5)cc4F)CC2)n3C)cc1F (stereo partly drawn) [Example 2g50, 3-((5-fluoro-4-(1-((5-(3-fluoro-4-(1-((S)-1-(4-(5-fluoro-4-(methylamino)-2-oxopyridin-1(2H)-yl)-1-meth-yl-1H-pyrrolo[2,3-b]pyridin-2-yl)ethyl)-1,2,3,6-tetrahydro-hydropyridin-4-yl)-5-methyl-benzoyl)-4,5,6,7-tetrahydro-pyrazolo[1,5-a]pyrazin-2-yl)-methyl)piperidin-4-yl)-2-methoxyphenyl)amino)piperi-dine-2,6-dione] |
| 173 | – | – | CNc1cc(=O)n(-c2ccnc3c2cc(CN2CC=C(c4c(F)cc(C(=O)N5CCC(CN6CCN(c7ccc(N[C@H]8CCC(=O)NC8=O)cc7F)CC6)CC5)cc4F)CC2)n3C)cc1F (single isomer, unassigned) [Example 2g66] |
